According to patent US20030129751A1, “Tissue-engineered organs” (priority 2001, published 2003):

System: neointestine
Assay: GLP-2 treatment of rats bearing tissue-engineered small intestine: morphometry and SGLT1 expression
Format: in vivo, rat
Experimental: Neointestinal cysts were engineered by seeding biodegradable polymers with neonatal rat intestinal organoid units. The implantation was also performed with small intestine organoid units that had been labeled with GFP to distinguish and verify engineered tissue from host tissue (FIG. 36). Confirmation of GFP production was obtained by simultaneous in vitro culture of the organoid units. The cysts were matured and anastomosed to the native jejunum of syngenic adult recipients. Histology and surface area calculations were performed, as well as Northern blot and localization analysis of the Na+/glucose cotransporter (SGLT1). GLP-2 treatment augmented the absorptive surface area of engineered intestine […]. Animals were treated with [[…]]GLP-2 (twice daily, 1 μg/g body weight), a long-acting analogue of GLP-2, or vehicle alone (control) for 10 days. Rats were then sacrificed and tissues harvested for analysis. Histological parameters and surface area determinations were done using computer-based morphometry.

[1] = [Gly2]GLP-2 twice daily 1 μg/g body weight, 10 days, mean±S.D.
[2] = [Gly2]GLP-2 twice daily 1 μg/g body weight, 10 days, mean±S.D., p < 0.05

Substance: [Gly2]GLP-2 (HGDGSFSDEMNTILDNLAARDFINWLIQTKITD; Glucagon-like peptide 2; UniProt P01275 146-178, looked up, variant A2G) [a long-acting analogue of GLP-2]
- SGLT1 mRNA expression in the neointestine (Northern blot, vs vehicle control): two-fold increase
- Crypt Width [1]: 63 ± 6 microns
- Villus Width [1]: 114 ± 32 microns
- Surface Area (mucosal amplification ratio) [2]: 7.3 ± 1.4
- Villus Height [2]: 456 ± 23 microns
- SGLT1 expression topography (localization analysis): unperturbed
- Expansion of absorptive surface area (vs vehicle control, 10 days): 40%
